# Measured values from patent US20210332024A1, “MODULATORS OF PIN1 ACTIVITY AND USES THEREOF” (Yeda Research and Development Co. Ltd., priority 2019, published 2021).
# What was measured:
# GST-Pin1 = GST-Pin1 (Homo sapiens, UniProt Q13526); assay: Fluorescence polarization (FP) competition assay; format: binding; conditions: FP assay, competition with fluorescein-labeled peptide, 250 nM GST-Pin1; read-out: Ki (apparent)
# Procedure: Binding affinity to Pin1 was determined using a fluorescence polarization assay to assess competition with an N-terminal fluorescein-labeled peptide (Bth-D-phosThr-Pip-Nal), which was obtained from JPT Peptide Technologies and Proteintech Group. The indicated concentrations of candidate compound were pre-incubated for 12 hours at 4° C. with a solution containing 250 nM glutathione S-transferase (GST)-Pin1, 5 nM of fluorescein-labeled peptide probe, 10 μg/ml bovine serum albumin, 0.01% Tween-20 and 1 mM DTT (dithiothreitol) in a buffer of 10 mM HEPES, 10 mM NaCl and 1% glycerol (pH 7.4). Measurements of FP were performed in black 384-well plates (Corning) using an EnVision™ reader. Apparent Ki values (under the tested conditions) obtained from the FP assay results were derived from the Kenakin Ki equation:
# Kenakin Ki=(Lb)(EC50)(Kd)/(Lo)(Ro)+Lb(Ro−Lo+Lb−Kd)
# Sittampalam G. S. et al., Eli Lilly & Company and the National Center for Advancing Translational Sciences, 2004].
# Covalent labeling of Pin1 was confirmed to translate into enzyme inhibition via a fluorescence polarization (FP) competition assay using a FITC-labeled substrate mimetic peptide inhibitor, as well as a chymotrypsin-coupled PPIase assay, using procedures described in Wei et al. [Nat Med 2015, 21:457-466].
# The fluorescent polarization assay was performed in a dose-dependent and time-dependent manner, in order to further characterize the kinetic parameters of Pin1-3 binding to Pin1.
# MDA-MB-231 cells = assay: Cell viability assay (CellTiter-Glo); format: cell-based; conditions: cell viability assay with MDA-MB-231 cells
# Procedure: MDA-MB-231 cells grew in DMEM medium supplemented with 10% FCS (fetal calf serum), 1% PS (penicillin-streptomycin) and 1% L-glutamine (all from Biological Industries). Exclusion of mycoplasma contamination was monitored and conducted by test with MycoAlert™ kit (Lonza). Cells were trypsinized and counted, and 1000 cells/well were plated in 50 μl of growth medium into 384-well white TC plates (Greiner) using Multidrop™ 384 (Thermo Scientific) Washer Dispenser II. The number of viable cells was monitored using CellTiter-Glo® Luminescent kit (Promega) in accordance with the manufacturer's protocol. Luminescence was measured using luminescence module of PHERAstar™ FS plate reader (BMG Labtech). Data analysis was performed using GeneData 12 analytic software. Assay ready plate preparation: Compounds transferred into black microplates (Greiner 784900) using Labcyte Echo® acoustic dispensing technology. Assay ready plates were then sealed with heat seals. If not used immediately, plates were frozen at −20° C. and held in polypropylene boxes with silica-gel desiccant.
# Exemplary Pin1-binding compounds were also tested for non-selective cytotoxicity in a viability assay against IMR90 lung fibroblasts.
# catalytic domain of Pin1 = target: T1, catalytic domain of Pin1 (Homo sapiens, UniProt Q13526); assay: Intact protein LC/MS labeling of Pin1; format: binding; conditions: 2 μM Pin1 with 2 μM test compound for 1 hour at room temperature
# T1 construct: The purified catalytic domain of Pin1 was incubated with the fragment library
# T1 sequence (Q13526 52-163 limits assumed): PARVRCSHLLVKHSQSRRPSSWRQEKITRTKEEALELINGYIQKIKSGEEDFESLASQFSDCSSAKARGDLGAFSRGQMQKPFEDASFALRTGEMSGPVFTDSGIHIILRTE
# Procedure: 993 compounds were transferred to a 384-well plate working copy by combining 0.5 μl of 20 mM stock solution of four or five compounds per well. The catalytic domain of Pin1 (2 μM) in 20 mM Tris, 75 mM NaCl, pH 7.5 was incubated with 200 μM for each compound and moderately shaken for 24 hours at 4° C. The reaction was stopped by the addition of formic acid to 0.4% (v/v) final concentration.
# Liquid chromatography/mass spectroscopy runs were performed on an Acquity™ UPLC® H-class system (Waters) in positive ion mode using electrospray ionization (ESI). UPLC separation was performed on a C4 column (300 Å, 1.7 μM, […]). The column was held at 40° C., and the autosampler at 10° C. Mobile solution A was 0.1% formic acid in water and mobile phase B was 0.1% formic acid in acetonitrile. Run flow was 0.4 ml/minute; and a gradient of 20% B for 2 minutes, increasing linearly to 60% B for 3 minutes, holding at 60% B for 1.5 minutes, changing to 0% B in 0.1 minute and holding at 0% for 1.4 minutes, was used. Desolvation temperature was 500° C. with a flow rate of 1000 liters/hour. The capillary voltage was 0.69 kV and cone voltage 46 V. Raw data was processed using OpenLynx™ software and deconvoluted using the MaxEnt tool. Labeling assignment was performed as described in Resnick et al. [J Am Chem Soc 2019, 141:8951-8968].
# For the screening 2 μl of each of the 448 click products as 50 μM DMSO stocks were transferred into a 384-well plate working plate. 48 μl of catalytic domain of Pin1 (2 μM) in 20 mM Tris (pH 7.5) with 75 mM NaCl were added and moderately shaken and incubated for 15 minutes at room temperature. The reaction was stopped by the addition of formic acid to 0.4% (v/v) final concentration (20 μl). The mixtures were analyzed by liquid chromatography/mass spectroscopy analogously to the electrophile library incubations described herein. Hits were retrospectively analyzed by liquid chromatography/mass spectroscopy (LC-MS) to ensure reaction completion.
# For each measured well, processed peaks were searched to match the mass of unlabeled protein or common small adducts of the unlabeled protein, which were found in the control sample or labeled protein. Labeling percentage for a compound was determined as the labeling of a specific compound divided by the overall detected protein species. Peaks whose mass could not be assigned were discarded from the overall labeling calculation. Data was analyzed using a python script for processing the MaxEnt-deconvoluted spectra. Peaks were normalized from ion counts to percentages, where the highest peak is defined as 100%. The unlabeled protein mass is deduced from a reference well that contains just the protein.
# The purified catalytic domain of Pin1 was incubated with the fragment library (2 μM protein, 200 μM compound; 24 hours at 4° C.), followed by intact protein liquid chromatography/mass-spectrometry (LC/MS) to identify and quantify compound labeling. FIG. 1 depicts an example of a compound identified in this manner.
# Based on the docking predictions, a total of 26 compounds that featured a range of small or bulky aliphatic, arylic, biphenylic or heterocyclic side-chains (structures depicted in FIG. 5), were synthesized or purchased. In order to identify potent binders, the irreversible labeling efficiency of these second-generation compounds was assessed alongside the original screening hits under more stringent conditions, with a 1:1 ratio of protein to compound (2 μM compound; 1 hour at room temperature).
# For further optimization of the lipophilic moiety, an alkyne side chain-bearing analog was prepared, which was derivatized with 448 different azides using copper-catalyzed azide-alkyne cycloaddition (CuAAC).
# [1] = Thiol reactivity assay (DTNB); format: physicochemical; conditions: 200 μM compound, pH 7.4, 37° C.
# Procedure: 50 μM DTNB (dithionitrobenzoic acid) was incubated with 200 μM TCEP (tris(2-carboxytehyl)phosphine) in 20 mM sodium phosphate buffer (pH 7.4) with 150 mM NaCl, for 5 minutes at room temperature, in order to obtain TNB^2− (thionitrobenzoate dianion). 200 μM compounds were subsequently added to the TNB^2−, followed by immediate UV absorbance measurement at 412 nm (at 37° C.). The UV absorbance was acquired every 15 minutes for 7 hours. The assay was performed in a 384-well plate using a Spark™ 10M plate reader (Tecan). Background absorbance of compounds was subtracted by measuring the absorbance at 412 nm of each compound under the same conditions without DTNB. Compounds were measured in triplicates. The data was fitted to a second order reaction equation such that the rate constant k is the slope of ln([A][B0]/[B][A0]), where [A0] and [B0] are the initial concentrations of the compound (200 μM) and TNB^2− (100 μM) respectively, and [A] and [B] are the remaining concentrations as a function of time, as determined from the spectrometric measurement. Linear regression using Prism® software was performed to fit the rate against the first four hours of measurements.
# In order to estimate the influence of the various lipophilic moieties on “warhead” reactivity [Flanagan et al., J Med Chem 2014, 57:10072-10079; Lonsdale et al., J Chem Inf Model 2017, 57:3124-3137; Dahal et al., Medchemcomm 2016, 7:864-872], the thiol reactivity of the top ten binders of the second and third generation was assessed using a high-throughput assay previously applied to the entire fragment library, as described in Resnick et al. [J Am Chem Soc 2019, 141:8951-8968]. In brief, the second-order rate constant was evaluated for a model thiol, which reflects trends in general reactivity towards thiol groups.
# [2] = system: wild-type 8988T pancreatic cancer cells; assay: Organoid growth in Matrigel, wild-type PATU-8988T; format: cell-based; conditions: 1 μM, 9 days
# Procedure: (§1) As three dimensional (3D) organoid models can reflect in vivo results better than monolayer cell culture [Baker et al., Trends Cancer Res 2016, 2:176-190], the anti-proliferative activity of Pin1-3 in PATU-8988T was further evaluated in wild-type or Pin1-knockout cells grown as organoids in Matrigel™ droplets. Cells were treated for 9 days with Pin1-3 (or Pin1-3-AcA or vehicle as a control), replenishing the compound in media every 3 days.
# Pin1 in PATU-8988T cells = target: T2, Pin1 in PATU-8988T cells (Homo sapiens, UniProt Q13526); assay: Live cell competition assay with Pin1-3-DTB pull-down, PATU-8988T cells; format: cell-based; conditions: 0.25 to 1 μM for 5 hours (Pin1-3-AcA 1 μM)
# T2 construct: endogenous in cells; host or cells: PATU-8988T
# T2 sequence (Q13526 whole entry): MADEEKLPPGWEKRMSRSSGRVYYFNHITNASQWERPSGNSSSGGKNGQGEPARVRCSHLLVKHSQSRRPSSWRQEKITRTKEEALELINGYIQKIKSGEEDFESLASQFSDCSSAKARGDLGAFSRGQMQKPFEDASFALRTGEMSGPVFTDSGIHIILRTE
# Procedure: (§2) The indicated cells were treated with increasing concentrations of either DMSO, Pin1-3, or Pin1-3-AcA for 5 hours. Cells were harvested by scraping and washed twice with PBS before lysis with 50 mM HEPES (pH 7.4), 1 mM EDTA, 10% glycerol, 1 mM TCEP, 150 mM NaCl, 1 mM EDTA, 0.5% NP-40, and protease inhibitor tablet (Roche cat. #4693159001). After clarifying (14,000 rpm for 15 minutes), samples were treated with the indicated concentrations of Pin1-3-DTB at 4° C. for 1 hour. Lysates were then incubated with streptavidin agarose resin (Thermo Scientific, cat. #20349) for 1.5 hour at 4° C. Beads were washed four times with 500 μl of washing buffer (50 mM HEPES (pH 7.5), 10 mM NaCl, 1 mM EDTA, 10% glycerol), then pelleted by centrifugation and dried. The beads were boiled for 5 minutes at 95° C. in 2×LDS+10% β-mercaptoethanol. Proteins of interest were then assessed via Western blotting using the bolt system (Life Technologies).
# The indicated cells were plated in 10 cm plates with 2.5 million cells per plate in 6 ml of medium. The day after plating, cells were treated with the indicated concentrations of candidate inhibitor for the indicated time points. The cells were then washed two times with cold phosphate buffer saline (1 ml per 10 cm plate) and collected by scraping with a cell scraper. Cells were lysed in 50 mM HEPES (pH 7.4), 1 mM EDTA, 10% glycerol, 1 mM TCEP, 150 mM NaCl, 1 mM EDTA, 0.5% NP-40, and protease inhibitor tablet (Roche)-using 210 μl of cell lysis buffer per 10 cm plate of cells. After clarifying (14,000 rpm for 15 minutes), 9 μl of each lysate sample was combined with […] of 4×LDS+10% β-mercaptoethanol (in a ratio of 3:1), boiled for 5 minutes, and set aside for the input loading control. Then, 200 μl of each lysate sample was incubated with 1 μM of Pin1-3-DTB for 1 hour at 4° C. and processed as described hereinabove for the lysate pull-down assays.
# In order to assess cell permeability of Pin1-3 as well as its ability to engage cellular Pin1, PATU-8988T cells were treated with Pin1-3 (0.25 to 1 μM) for 5 hours. After cell lysis, the lysates were incubated with Pin1-3-DTB (1 μM, 1 hour at 4° C.) and probe-labeled targets were pulled down with streptavidin beads.
# Pin1 in IMR32 cells = target: T3, Pin1 in IMR32 cells (Homo sapiens, UniProt Q13526); assay: Live cell competition assay with Pin1-3-DTB pull-down, IMR32 cells; format: cell-based; conditions: IMR32 cells, 0.25, 0.5 or 1 μM Pin1-3 or 1 μM Pin1-3-AcA
# T3 construct: endogenous in cells; host or cells: IMR32
# T3 sequence (Q13526 whole entry): as above
# Procedure: as §2
# The indicated cells were plated in 10 cm plates with 2.5 million cells per plate in 6 ml of medium. The day after plating, cells were treated with the indicated concentrations of candidate inhibitor for the indicated time points. The cells were then washed two times with cold phosphate buffer saline (1 ml per 10 cm plate) and collected by scraping with a cell scraper. […]
# [3] = system: Pin1-knockout pancreatic cancer cells; assay: Organoid growth in Matrigel, Pin1-knockout PATU-8988T; format: cell-based; conditions: 1 μM, 9 days
# Procedure: as §1
# [4] = target: T4, Pin1 in PAT8988T cell lysates (Homo sapiens, UniProt Q13526); assay: Lysate pull-down assay with Pin1-3-DTB; format: binding; conditions: 1 μM probe, 1 hour incubation in cell lysates
# T4 construct: endogenous in cells; host or cells: PATU-8988T
# T4 sequence (Q13526 whole entry): as above
# Procedure: as §2
# Sequence of GST-Pin1 (Q13526 whole entry): as above
SMILES,Ki (GST-Pin1) [µM],EC50 (MDA-MB-231 cells) [µM],Labeling [%] (catalytic domain of Pin1),Reactivity Log k [1],Reactivity k [1] [M⁻¹ s⁻¹],Organoid growth [2],Competition with Pin1-3-DTB for Pin1 binding (pull-down) (Pin1 in PATU-8988T cells),Engagement of Pin1 (competition with Pin1-3-DTB) (Pin1 in IMR32 cells),Organoid growth [3],Pull-down of Pin1 by the probe [4]
Cc1ccsc1CN(C(=O)CCl)C1CCS(=O)(=O)C1 (centres unmarked) [Pin1-2-8],0.133,5.1,52,−6.66,2.19e-07,,,,,
CC1(N(Cc2ccccc2)C(=O)CCl)CCS(=O)(=O)C1 (centres unmarked) [Pin1-2-9],0.083,11.3,43,−7.11,7.68e-08,,,,,
"CC(=O)N(CC(C)(C)C)C1CCS(=O)(=O)C1 (centres unmarked) [Pin1-3-AcA, reference compound]",> 100,,,,,no effect,no competition,does not,no effect,
CC1NC(=O)NC1CCCCCC(=O)NCCOCCOCCOCCC(=O)NCC(C)(C)CN(C(=O)CCl)C1CCS(=O)(=O)C1 (centres unmarked) [Pin1-3-DTB],0.038,,,,,,,,,complete pull-down
